Test results: article PMC8991960, “A Bivalent Activatable Fluorescent Probe for Screening and Intravital Imaging of Chemotherapy‐Induced Cancer Cell Death” (Angewandte Chemie (International Ed. in English), 2021)

Experiments:
8 cancer cell lines = assay: Classification of drugs by Apotracker Red (apoptosis) and CellTrace Violet (proliferation) staining; type: cell-based; conditions: 8 cell lines, 24 h treatment, single-dose screen
Experimental: To corroborate the versatility of Apotracker Red, we built a screening platform including a total of 8 cancer cell lines of variable origin and pathogenesis: breast (MCF7, MDA‐MB231 and MMTV‐PyMT (mouse mammary tumour virus‐polyoma middle tumour‐antigen)[23]), lung (A549), prostate (PC3 and LnCap), blood cells (Jurkat) and colon (HT29). All cell lines were cultured under standard conditions and seeded with the fluorescent proliferation marker CellTrace^TM Violet (CV) in 96‐well plates (10–20×10^3 cells/well) for high‐throughput flow cytometry. After drug treatment (i.e., drug addition plus 24 h incubation), Apotracker Red was incubated for 10 min and fluorescence readings were directly acquired without any additional processing steps (Figure 3 a). […] Using this platform, we tested a collection of FDA‐approved drugs in all cancer cell lines and compared their ability to induce apoptosis using Apotracker Red as the reporter. Specifically, we included DNA alkylation agents (e.g., cyclophosphamide, cisplatin, 5‐fluorouracil, gemcitabine, temozolomide), proteasomal and mitotic inhibitors (e.g., bortezomib, docetaxel, paclitaxel) and antagonists of specific proteins (e.g., dexamethasone, tamoxifen; Figure 3 b).
(§1) First, all drugs were tested in the 8 different cell lines to determine the percentages of Apotracker Red‐stained apoptotic cells compared to no treatment (Figure 3 c; Figure S8). […] All 5 drugs were tested at multiple concentrations (from 1 to 100 μM) and with incubation times up to 48 h to examine whether drugs could block cell proliferation at late stages (Figures S9–S13).
Figure S8. Heatmap of relative inhibition of cell proliferation (as indicated by staining of CellTraceTM Violet) after treatment of cancer cell lines with different drugs. Data presented as an average of 3 independent experiments. Cells were stained on day 0 with CellTraceTM Violet (1 µM) and mean fluorescence intensities were determined on the 5L LSR after 24 h of treatment with the different drugs.
(1 picture or pasted object on this page, not shown here) […]
Cell culture. MCF-7, A549, LnCap, MDA-MB-231, Jurkat T cells and PC3 cells were obtained from American Type Culture Collection (ATCC). HT29 cells were purchased from Merck (S i g m a Aldrich, UK). Mouse Mammary Tumour Virus –Polyoma Middle T antigen (MMTV -PyMT) cells were provided by the lab of Mikala Egeblad (CSHL, US). MMTV-PyMT, MCF-7, LnCap, MDA-MB-231 and Jurkat T cells were cultured in Roswell Park Memorial Institute (RPMI) 1640 Medium supplemented with 10% fetal bovine serum (FBS) , 100 U mL-1 penicillin and 0.1 mg mL-1 streptomycin. A549 and PC3 cells were cultured in Dublecco’s modified Eagle’s medium (DMEM) supplemented with 10% fetal bovine serum (FBS), 100 U mL-1 penicillin and 0.1 mg […]
Flow cytometry drug screen.

[1] = test system: breast cancer cells (MMTV-PyMT, MDA-MB231, MCF7); assay: Dose-dependency study with Apotracker Red and CellTrace Violet; type: cell-based, mouse and human; conditions: 1 to 100 µM
Experimental: as §1, with “S8). […] From this screen, we decided to select 5 drugs with potent pro‐apoptotic response in breast cancer, the most diagnosed cancer worldwide.[25] […] From group 2, we selected cyclophosphamide, tamoxifen, and 5‐fluorouracil as pro‐apoptotic molecules.” for “S8).”
Figure 4 Apotracker Red detects dose‐dependent chemotherapeutic‐induced apoptosis in mouse and human breast cancer cell lines. Cells were plated with 1 μM CV, treated with increasing concentrations (0, 1, 3, 10, 30 and 100 μM) of selected drugs for 48 h, and stained with Apotracker Red (150 nM) before data acquisition. Drugs: tamoxifen (beige), cisplatin (black), 5‐fluorouracil (green), gemcitabine (pink) and cyclophosphamide (red). Data presented as mean±SEM of 3 independent experiments.
Figure S9. Flow cytometry analysis of cisplatin in different breast cancer cell lines.
Representative flow cytometric plots (from three independent experiments) of MMTV-PyMT cells (a), MDA-MB231 cells (b) and MCF7 cells (c) after treatment with increasing concentrations of cisplatin for 48 h. Cells were stained on day 0 with CellTraceTM Violet (1 µ M) and with Apotracker Red (150 nM) before data acquisition.
(1 picture or pasted object on this page, not shown here)
Edinburgh. Human peripheral blood neutrophils were isolated as previously described.[3] […]
were centrifuged (300 g, 5 min, r.t.), washed once with PBS before addition of 0.05% Trypsin, 0.02% ethylenediaminetetraacetic acid (EDTA) in Hank’s balanced salt solution (HBSS) and incubation at 37°C for 5 min. […] Histograms and mean fluorescence intensities of […]

N.N.[Cl][Pt][Cl] [cisplatin]
Drug group by Apotracker Red (apoptosis) and CV (proliferation) staining (8 cancer cell lines): induced apoptosis and decreased cell proliferation | Percentages of Apotracker Red staining, dose-dependency study ([1]; 48 h, Apotracker Red 150 nM, 3 independent experiments): highest percentages of Apotracker Red staining across all breast cancer cells | Ratios of proliferation blockage, dose-dependency study ([1]; up to 48 h, CellTrace Violet 1 µM): highest ratios of proliferation blockage
